Measured values published in US20100092385A1, “Novel Heteroaryl Substituted Imidazo [1,2-A] Pyridine Derivatives” (ASTRAZENECA AB, priority 2007, published 2010).
pIC50: −log10 of the molar value.

target: T1, synthetic Aβ 1-40 (Homo sapiens, UniProt P05067); assay: Competition binding assay; conditions: [3H]PIB as radioligand (2.7 nM), synthetic Aβ 1-40, phosphate buffer pH 7.5, 30 min room temperature; read-out: IC50 in the competion binding assay
T1 construct: using synthetic Aβ 1-40 in 2.7 nM of [^3H]PIB
T1 sequence (P05067 672-711 limits assumed): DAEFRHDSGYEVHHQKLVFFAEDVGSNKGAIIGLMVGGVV
Experimental: Competition binding was performed in 384-well FB filter plates using synthetic Aβ 1-40 in 2.7 nM of [^3H]PIB (or another ^3H-labeled radioligand when so mentioned) in phosphate buffer at pH 7.5, by adding various concentrations of non-radioactive compounds originally dissolved in DMSO. The binding mixture was incubated for 30 min at room temperature, followed by vacuum filtration, and subsequently by washing twice with 1% Triton-X100. Scintillation fluid was thereafter added to the collected Aβ 1-40 on the filter plate, and the activity of the bound remaining radioligand ([^3H]PIB or another ^3H-labeled radioligand) was measured using 1450 Microbeta from PerkinElmer. Specific binding was determined according to the competion binding assay described herein. The determined IC50's in the competion binding assays (using [^3H]PIB as radioligand) of […] of the present invention are shown in Table 1.

| SMILES | pIC50 |
| --- | --- |
| COc1ccc2nc(-c3cnc(OC)c(F)c3)cn2c1 [Example 6, 2-(5-Fluoro-6-methoxypyridin-3-yl)-6-methoxyimidazo[1,2-a]pyridine] | 6.08 |
| COc1ccc2nc(-c3cnc(OC)c(Cl)c3)cn2c1 [Example 7, 2-(5-Chloro-6-methoxypyridin-3-yl)-6-methoxyimidazo[1,2-a]pyridine] | 6.15 |
| COc1ccc2nc(-c3ccc(OC)nc3)cn2c1 [Example 5, 6-Methoxy-2-(6-methoxypyridin-3-yl)imidazo[1,2-a]pyridine] | 5.55 |
| COc1ccc2nc(-c3ccc(C(N)=O)nc3)cn2c1 [Example 16, 5-(6-Methoxyimidazo[1,2-a]pyridin-2-yl)pyridine-2-carboxamide] | 5.64 |
| COc1ccc2nc(-c3ccc(N(C)C)nc3)cn2c1 [Example 3, 5-(6-Methoxyimidazo[1,2-a]pyridin-2-yl)-N,N-dimethylpyridin-2-amine] | 6.41 |
| CN(C)c1ccc(-c2cn3cc(O)ccc3n2)cn1 [Example 4, 2-[6-(Dimethylamino)pyridin-3-yl]imidazo[1,2-a]pyridin-6-ol] | 6.90 |
| O=C(OCCF)c1ccc2nc(-c3ccc(F)nc3)cn2c1 [Example 18, 2-Fluoroethyl 2-(6-fluoropyridin-3-yl)imidazo[2,1-f]pyridine-6-carboxylate] | 4.75 |
| CNc1ccc(-c2cn3cc(C(=O)OCCF)ccc3n2)cn1 [Example 22, 2-Fluoroethyl 2-(6-methylaminopyridin-3-yl)imidazo[2,1-t]pyridine-6-carboxylate] | 6.33 |
| NC(=O)c1ccc(-c2cn3cc(O)ccc3n2)cn1 [Example 17, 5-(6-Hydroxyimidazo[1,2-a]pyridin-2-yl)pyridine-2-carboxamide] | 5.55 |
| COc1ccc2nc(-c3cnc(N4CCOCC4)nc3)cn2c1 [Example 10, 6-Methoxy-2-(2-morpholin-4-ylpyrimidin-5-yl)imidazo[1,2-a]pyridine] | 5.80 |
| CN(C)c1ccc(-c2cn3cc(C(=O)OCCF)ccc3n2)cn1 [Example 20, 2-Fluoroethyl 2-(6-dimethylaminopyridin-3-yl)imidazo[2,1-f]pyridine-6-carboxylate] | 4.78 |

More lines, now with the values ahead:

| pIC50 | SMILES |
| --- | --- |
| 6.43 | CNc1ccc(-c2cn3cc(O)ccc3n2)cn1 [Example 2, 2-[6-(Methylamino)pyridin-3-yl]imidazo[1,2-a]pyridin-6-ol] |
| 6.13 | COC(=O)c1ccc2nc(-c3ccc(N(C)C)nc3)cn2c1 [Example 19, Methyl 2-(6-dimethylaminopyridin-3-yl)imidazo[2,1-f]pyridine-6-carboxylate] |
| 6.74 | COc1ccc2nc(-c3ccc4[nH]ccc4c3)cn2c1 [Example 11, 2-(1H-Indol-5-yl)-6-methoxyimidazo[1,2-a]pyridine] |
| 6.02 | CNc1ccc(-c2cn3cc(C(=O)OC)ccc3n2)cn1 [Example 21, Methyl 2-(6-methylaminopyridin-3-yl)imidazo[2,1-f]pyridine-6-carboxylate] |
| 5.61 | CNc1ccc(-c2cn3cc(OC)ccc3n2)cn1 [Example 1, 5-(6-Methoxyimidazo[1,2-a]pyridin-2-yl)-N-methylpyridin-2-amine] |
| 5.86 | COc1ccc2nc(-c3ccc(N4CCN(C(=O)OC(C)(C)C)CC4)nc3)cn2c1 [Example 9, tert-Butyl 4-[5-(6-methoxyimidazo[1,2-c]pyridin-2-yl)pyridin-2-yl]piperazine-1-carboxylate] |
| 5.08 | COc1ccc2nc(-c3ccc(N4CCNCC4)nc3)cn2c1 [Example 8, 6-Methoxy-2-(6-piperazin-1-ylpyridin-3-yl)imidazo[1,2-a]pyridine] |
